Measured values reported in the supplement of paper PMC4858399.
Where a name gives a salt, the structure may show the parent alone.

Columns and labels:
Conditions in all cases: exposure time 48 h
[1] = test system: Caenorhabditis elegans N2; assay: mean nematode size ln(EXT) after 48 h, plate-adjusted (DMSO control set to 6) (ln(EXT), control-adjusted); higher = larger nematodes / less growth inhibition
In short: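 Synchronised C. elegans N2 L1 larvae were grown for 48 h at 20°C in K-medium containing killed OP50, 1% DMSO and 0.5–200 µM chemical, at 50 per well and 4–6 wells per treatment. The Biosort recorded extinction for each worm, and a growth model removed debris. Worm size was obtained by natural-logging these values and averaging them per well. For plate adjustment, the vehicle control mean was subtracted and 6 was added.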

[2] = test system: Caenorhabditis elegans N2; assay: lowest effective concentration for larval growth inhibition (size below effect threshold); higher = less potent
In short: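 C. elegans N2 L1 larvae (50 per 96-well) were grown 48 h at 20°C in K-medium with killed bacteria, 1% DMSO and 0.5, 1, 5, 10, 50, 100 or 200 µM chemical. The Biosort measured per-worm extinction as size, and these were log-transformed into well means. The lowest effective concentration is the first dose where the plate-adjusted mean size drops under the 5.665 threshold and stays under it at higher doses.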

[3] = test system: Caenorhabditis elegans N2; assay: AC50 for larval growth inhibition (Hill fit); higher = less potent
In short: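 Synchronised C. elegans N2 L1 larvae, 50 per well in 96-well plates, were grown at 20°C for 48 h in K-medium with killed OP50, 1% DMSO and 0.5–200 µM chemical. Worm size was read on a COPAS Biosort as extinction, log-transformed and averaged per well, and only wells holding at least 10 worms were kept. AC50 was obtained by a constrained Hill fit using weighted genetic-algorithm regression, with out-of-range values censored.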

Compound: O=C(O)CC(O)C(=O)O (centres undefined) [2-Hydroxybutanedioic acid]
- mean nematode size ln(EXT) (ln) ([1]; 0.5 µM): 5.83
- mean nematode size ln(EXT) (ln) ([1]; 1 µM): 5.82
- mean nematode size ln(EXT) (ln) ([1]; 5 µM): 5.8
- mean nematode size ln(EXT) (ln) ([1]; 10 µM): 5.81
- mean nematode size ln(EXT) (ln) ([1]; 50 µM): 5.83
- mean nematode size ln(EXT) (ln) ([1]; 100 µM): 5.61
- mean nematode size ln(EXT) (ln) ([1]; 200 µM): 5.58
- lowest effective concentration [2]: 100 µM
- AC50 for larval growth inhibition [3]: > 200 µM

Compound: O=C(NO)C1(NS(=O)(=O)c2ccc(Oc3ccc(F)cc3)cc2)CCOCC1
- mean nematode size ln(EXT) (ln) ([1]; 0.5 µM): 5.72
- mean nematode size ln(EXT) (ln) ([1]; 1 µM): 6.03
- mean nematode size ln(EXT) (ln) ([1]; 5 µM): 5.84
- mean nematode size ln(EXT) (ln) ([1]; 10 µM): 5.9
- mean nematode size ln(EXT) (ln) ([1]; 50 µM): 5.89
- mean nematode size ln(EXT) (ln) ([1]; 100 µM): 5.71
- mean nematode size ln(EXT) (ln) ([1]; 200 µM): 5.12
- lowest effective concentration [2]: 200 µM
- AC50 for larval growth inhibition [3]: > 200 µM

Compound: CC(C)(C)c1cc(C(C)(C)C)c(O)c(C(C)(C)C)c1 [2,4,6-Tris(tert-butyl)phenol]
- mean nematode size ln(EXT) (ln) ([1]; 0.5 µM): 5.84
- mean nematode size ln(EXT) (ln) ([1]; 1 µM): 5.9
- mean nematode size ln(EXT) (ln) ([1]; 5 µM): 5.94
- mean nematode size ln(EXT) (ln) ([1]; 10 µM): 5.7
- mean nematode size ln(EXT) (ln) ([1]; 50 µM): 5.58
- mean nematode size ln(EXT) (ln) ([1]; 100 µM): 5.4
- mean nematode size ln(EXT) (ln) ([1]; 200 µM): 4.67
- lowest effective concentration [2]: 50 µM
- AC50 for larval growth inhibition [3]: > 200 µM

Compound: CC(C)(C)C(O)(CCc1ccc(Cl)cc1)Cn1cncn1 (centres undefined) [Tebuconazole]
- mean nematode size ln(EXT) (ln) ([1]; 0.5 µM): 5.91
- mean nematode size ln(EXT) (ln) ([1]; 1 µM): 5.93
- mean nematode size ln(EXT) (ln) ([1]; 5 µM): 5.86
- mean nematode size ln(EXT) (ln) ([1]; 10 µM): 5.81
- mean nematode size ln(EXT) (ln) ([1]; 50 µM): 5.26
- mean nematode size ln(EXT) (ln) ([1]; 100 µM): 5.21
- mean nematode size ln(EXT) (ln) ([1]; 200 µM): 4.07
- lowest effective concentration [2]: 50 µM
- AC50 for larval growth inhibition [3]: 144 µM

Compound: COC(=O)N(C(=O)N1CO[C@@]2(C(=O)OC)Cc3cc(Cl)ccc3C2=N1)c1ccc(OC(F)(F)F)cc1 [Indoxacarb]
- mean nematode size ln(EXT) (ln) ([1]; 0.5 µM): 6
- mean nematode size ln(EXT) (ln) ([1]; 1 µM): 5.91
- mean nematode size ln(EXT) (ln) ([1]; 5 µM): 5.25
- mean nematode size ln(EXT) (ln) ([1]; 10 µM): 4.02
- mean nematode size ln(EXT) (ln) ([1]; 50 µM): 3.6
- mean nematode size ln(EXT) (ln) ([1]; 100 µM): 3.56
- mean nematode size ln(EXT) (ln) ([1]; 200 µM): 3.48
- lowest effective concentration [2]: 5 µM
- AC50 for larval growth inhibition [3]: 6.41 µM

Compound: CCCCCCCCCCCCc1ccc(S(=O)(=O)O)cc1 [4-Dodecylbenzenesulfonic acid]
- mean nematode size ln(EXT) (ln) ([1]; 0.5 µM): 5.45
- mean nematode size ln(EXT) (ln) ([1]; 1 µM): 5.6
- mean nematode size ln(EXT) (ln) ([1]; 5 µM): 5.55
- mean nematode size ln(EXT) (ln) ([1]; 10 µM): 5.63
- mean nematode size ln(EXT) (ln) ([1]; 50 µM): 4.03
- mean nematode size ln(EXT) (ln) ([1]; 100 µM): 3.77
- mean nematode size ln(EXT) (ln) ([1]; 200 µM): 3.53
- lowest effective concentration [2]: ≤ 0.5 µM
- AC50 for larval growth inhibition [3]: 27.5 µM

Compound: COc1cc(Cl)c(OC)cc1Cl [Chloroneb]
- mean nematode size ln(EXT) (ln) ([1]; 0.5 µM): 5.75
- mean nematode size ln(EXT) (ln) ([1]; 1 µM): 5.71
- mean nematode size ln(EXT) (ln) ([1]; 5 µM): 5.58
- mean nematode size ln(EXT) (ln) ([1]; 10 µM): 5.7
- mean nematode size ln(EXT) (ln) ([1]; 50 µM): 5.96
- mean nematode size ln(EXT) (ln) ([1]; 100 µM): 5.97
- mean nematode size ln(EXT) (ln) ([1]; 200 µM): 5.47
- lowest effective concentration [2]: 200 µM
- AC50 for larval growth inhibition [3]: > 200 µM

Compound: CC/C(=C(\c1ccccc1)c1ccc(OCCN(C)C)cc1)c1ccccc1 [Tamoxifen]
- mean nematode size ln(EXT) (ln) ([1]; 0.5 µM): 5.79
- mean nematode size ln(EXT) (ln) ([1]; 1 µM): 5.76
- mean nematode size ln(EXT) (ln) ([1]; 5 µM): 5.65
- mean nematode size ln(EXT) (ln) ([1]; 10 µM): 5.67
- mean nematode size ln(EXT) (ln) ([1]; 50 µM): 3.84
- mean nematode size ln(EXT) (ln) ([1]; 100 µM): 3.93
- mean nematode size ln(EXT) (ln) ([1]; 200 µM): 3.53
- lowest effective concentration [2]: 50 µM
- AC50 for larval growth inhibition [3]: 20.8 µM

Compound: CCN(CC)c1ccccc1 [N,N-Diethyl aniline]
- mean nematode size ln(EXT) (ln) ([1]; 0.5 µM): 6.08
- mean nematode size ln(EXT) (ln) ([1]; 1 µM): 6.09
- mean nematode size ln(EXT) (ln) ([1]; 5 µM): 5.9
- mean nematode size ln(EXT) (ln) ([1]; 10 µM): 6
- mean nematode size ln(EXT) (ln) ([1]; 50 µM): 5.98
- mean nematode size ln(EXT) (ln) ([1]; 100 µM): 6.05
- mean nematode size ln(EXT) (ln) ([1]; 200 µM): 4.83
- lowest effective concentration [2]: 200 µM
- AC50 for larval growth inhibition [3]: 186 µM

Compound: CCCCCCCCOC(=O)c1cc(O)c(O)c(O)c1 [Octyl gallate]
- mean nematode size ln(EXT) (ln) ([1]; 0.5 µM): 5.79
- mean nematode size ln(EXT) (ln) ([1]; 1 µM): 5.87
- mean nematode size ln(EXT) (ln) ([1]; 5 µM): 5.84
- mean nematode size ln(EXT) (ln) ([1]; 10 µM): 5.88
- mean nematode size ln(EXT) (ln) ([1]; 50 µM): 4.63
- mean nematode size ln(EXT) (ln) ([1]; 100 µM): 4.47
- mean nematode size ln(EXT) (ln) ([1]; 200 µM): 3.77
- lowest effective concentration [2]: 50 µM
- AC50 for larval growth inhibition [3]: 55.1 µM

Compound: CC(C)(C)c1cc(/C=C2\SC(=N)NC2=O)cc(C(C)(C)C)c1O [Darbufelone mesylate]
- mean nematode size ln(EXT) (ln) ([1]; 0.5 µM): 5.59
- mean nematode size ln(EXT) (ln) ([1]; 1 µM): 5.62
- mean nematode size ln(EXT) (ln) ([1]; 5 µM): 5.03
- mean nematode size ln(EXT) (ln) ([1]; 10 µM): 5.48
- mean nematode size ln(EXT) (ln) ([1]; 50 µM): 4.17
- mean nematode size ln(EXT) (ln) ([1]; 100 µM): 4.18
- mean nematode size ln(EXT) (ln) ([1]; 200 µM): 3.87
- lowest effective concentration [2]: ≤ 0.5 µM
- AC50 for larval growth inhibition [3]: 31.2 µM
